Results published in ChEMBL document CHEMBL3885861, “Open TG-GATES”.

Species on record: Rattus norvegicus
Test: Open TG-GATES - Regimen: Single
Type: toxicity, organism-based, Sprague-Dawley
Parameters: regimen Single, gender Male, age 6 weeks
Conditions: in vivo, po, 3 mg/kg, route gavage, dose level Low; for APTT / Bas / Eos / Fbg / Hb / Ht / Lym / MCH / MCHC / MCV / Mono / Neu / PT / Plat / RBC / Ret / WBC: tissue Blood; for KIDNEY_L / KIDNEY_R / KIDNEY_TOTAL: tissue Kidney; for LIVER: tissue Liver; for A/G / ALP / ALT / AST / BUN / CRE / Ca / Cl / DBIL / GLC / IP / K / LDH / Na / PL / RALB / TBIL / TC / TG / TP / gamma-GTP: tissue Plasma

In the case of `Cn1cnc([N+](=O)[O-])c1Sc1ncnc2nc[nH]c12` [AZATHIOPRINE], the TERMINAL_BW (3 h) is reported as 191 g, the APTT (3 h) is reported as 23.4 s and the Bas (3 h) is reported as 0%. It also gave an Eos (3 h) of 1%, a Fbg (3 h) of 295.8 mg/dL and a Hb (3 h) of 13.4 g/dL. The Ht (3 h) was 40.1%, the Lym (3 h) was 77.8% and the MCH (3 h) was 21.6 pg. The MCHC (3 h) was 33.4%, the MCV (3 h) was 64.6 fL and the Mono (3 h) was 1.8%. For the same compound, the Neu (3 h) was 18.2%, the PT (3 h) was 15.8 s and the Plat (3 h) was 115.7 x10_4/uL. For the same compound, the RBC (3 h) was 621.4 x10_4/ul, the Ret (3 h) was 9.1% and the WBC (3 h) was 67.9 x10_2/uL. It also gave a KIDNEY_L (3 h) of 0.8 g, a KIDNEY_R (3 h) of 0.9 g and a KIDNEY_TOTAL (3 h) of 1.7 g. For the same compound, the LIVER (3 h) was 8.6 g, the A/G (3 h) was 1.2 and the ALP (3 h) was 1535.2 IU/L. For the same compound, the ALT (3 h) was 41.6 IU/L, the AST (3 h) was 73.4 IU/L and the BUN (3 h) was 13.2 mg/dL. It also gave a CRE (3 h) of 0.1 mg/dL, a Ca (3 h) of 10.6 mg/dL and a Cl (3 h) of 106.8 meq/L. The DBIL (3 h) was 0.002 mg/dL, the GLC (3 h) was 190.2 mg/dL and the IP (3 h) was 8.1 mg/dL. It also gave a K (3 h) of 4.2 meq/L, an LDH (3 h) of 273.6 IU/L and a Na (3 h) of 142.8 meq/L. It also gave a PL (3 h) of 139.2 mg/dL, an RALB (3 h) of 3 g/dL and a TBIL (3 h) of 0.004 mg/dL. For the same compound, the TC (3 h) was 75.4 mg/dL, the TG (3 h) was 68 mg/dL and the TP (3 h) was 5.5 g/dL. The gamma-GTP (3 h) was 1 IU/L, the TERMINAL_BW (6 h) was 185.7 g and the APTT (6 h) was 21.8 s. The Bas (6 h) was 0%, the Eos (6 h) was 0.8% and the Fbg (6 h) was 324.4 mg/dL. For the same compound, the Hb (6 h) was 13.1 g/dL, the Ht (6 h) was 39% and the Lym (6 h) was 69.2%. For the same compound, the MCH (6 h) was 22.3 pg, the MCHC (6 h) was 33.6% and the MCV (6 h) was 66.3 fL. It also gave a Mono (6 h) of 2.2%, a Neu (6 h) of 26.2% and a PT (6 h) of 15.7 s. The Plat (6 h) was 130.1 x10_4/uL, the RBC (6 h) was 589.2 x10_4/ul and the Ret (6 h) was 9.5%. It also gave a WBC (6 h) of 95.2 x10_2/uL, a KIDNEY_L (6 h) of 0.8 g and a KIDNEY_R (6 h) of 0.8 g. The KIDNEY_TOTAL (6 h) was 1.7 g, the LIVER (6 h) was 8.1 g and the A/G (6 h) was 1.2. The ALP (6 h) was 1674.4 IU/L, the ALT (6 h) was 43.2 IU/L and the AST (6 h) was 75 IU/L. The BUN (6 h) was 9.4 mg/dL, the CRE (6 h) was 0.1 mg/dL and the Ca (6 h) was 10.5 mg/dL. It also gave a Cl (6 h) of 106.8 meq/L, a DBIL (6 h) of 0.002 mg/dL and a GLC (6 h) of 182.4 mg/dL. The IP (6 h) was 8.8 mg/dL, the K (6 h) was 4.2 meq/L and the LDH (6 h) was 288.6 IU/L. The Na (6 h) was 142.2 meq/L, the PL (6 h) was 135.8 mg/dL and the RALB (6 h) was 3 g/dL. It also gave a TBIL (6 h) of 0.008 mg/dL, a TC (6 h) of 78.8 mg/dL and a TG (6 h) of 48.4 mg/dL. The TP (6 h) was 5.5 g/dL, the gamma-GTP (6 h) was 1 IU/L and the TERMINAL_BW (9 h) was 186.8 g. For the same compound, the APTT (9 h) was 22.5 s, the Bas (9 h) was 0% and the Eos (9 h) was 1%. The Fbg (9 h) was 311.8 mg/dL, the Hb (9 h) was 13 g/dL and the Ht (9 h) was 38.7%. The Lym (9 h) was 74%, the MCH (9 h) was 21.2 pg and the MCHC (9 h) was 33.5%. For the same compound, the MCV (9 h) was 63.4 fL, the Mono (9 h) was 2.4% and the Neu (9 h) was 20.6%. The PT (9 h) was 15.3 s, the Plat (9 h) was 125.3 x10_4/uL and the RBC (9 h) was 611 x10_4/ul. It also gave a Ret (9 h) of 9.3%, a WBC (9 h) of 83.5 x10_2/uL and a KIDNEY_L (9 h) of 0.9 g. The KIDNEY_R (9 h) was 0.9 g, the KIDNEY_TOTAL (9 h) was 1.7 g and the LIVER (9 h) was 7.5 g. It also gave an A/G (9 h) of 1.2, an ALP (9 h) of 1456.2 IU/L and an ALT (9 h) of 38.4 IU/L. It also gave an AST (9 h) of 70.4 IU/L, a BUN (9 h) of 10.6 mg/dL and a CRE (9 h) of 0.1 mg/dL. It also gave a Ca (9 h) of 10.5 mg/dL, a Cl (9 h) of 107 meq/L and a DBIL (9 h) of 0 mg/dL. The GLC (9 h) was 183.4 mg/dL, the IP (9 h) was 9.3 mg/dL and the K (9 h) was 4.2 meq/L. The LDH (9 h) was 234.2 IU/L, the Na (9 h) was 141.6 meq/L and the PL (9 h) was 140.8 mg/dL. For the same compound, the RALB (9 h) was 2.9 g/dL, the TBIL (9 h) was 0.016 mg/dL and the TC (9 h) was 83.4 mg/dL. For the same compound, the TG (9 h) was 51.8 mg/dL, the TP (9 h) was 5.4 g/dL and the gamma-GTP (9 h) was 1 IU/L. The TERMINAL_BW (24 h) was 202.9 g, the APTT (24 h) was 21.3 s and the Bas (24 h) was 0%. It also gave an Eos (24 h) of 1%, a Fbg (24 h) of 322.4 mg/dL and a Hb (24 h) of 13.5 g/dL. It also gave a Ht (24 h) of 39.2%, a Lym (24 h) of 77.8% and an MCH (24 h) of 21.9 pg. For the same compound, the MCHC (24 h) was 34.5%, the MCV (24 h) was 63.4 fL and the Mono (24 h) was 2.2%. For the same compound, the Neu (24 h) was 18.4%, the PT (24 h) was 16 s and the Plat (24 h) was 135.6 x10_4/uL. The RBC (24 h) was 618.4 x10_4/ul, the Ret (24 h) was 8.2% and the WBC (24 h) was 63.3 x10_2/uL. For the same compound, the KIDNEY_L (24 h) was 0.9 g, the KIDNEY_R (24 h) was 0.9 g and the KIDNEY_TOTAL (24 h) was 1.8 g. It also gave an LIVER (24 h) of 9.7 g, an A/G (24 h) of 1.3 and an ALP (24 h) of 1726.6 IU/L. For the same compound, the ALT (24 h) was 48.8 IU/L, the AST (24 h) was 75.4 IU/L and the BUN (24 h) was 14.6 mg/dL. For the same compound, the CRE (24 h) was 0.1 mg/dL, the Ca (24 h) was 11.1 mg/dL and the Cl (24 h) was 106.8 meq/L. For the same compound, the DBIL (24 h) was 0 mg/dL, the GLC (24 h) was 189 mg/dL and the IP (24 h) was 7.2 mg/dL. It also gave a K (24 h) of 4.1 meq/L, an LDH (24 h) of 318.6 IU/L and a Na (24 h) of 143.4 meq/L. It also gave a PL (24 h) of 148.2 mg/dL, an RALB (24 h) of 3.2 g/dL and a TBIL (24 h) of 0.004 mg/dL. For the same compound, the TC (24 h) was 76.4 mg/dL, the TG (24 h) was 120 mg/dL and the TP (24 h) was 5.7 g/dL. For the same compound, the gamma-GTP (24 h) was 1.2 IU/L.
